Laboratory results taken from PMC6930649, “Four New Iridoid Metabolites Have Been Isolated from the Stems of Neonauclea reticulata (Havil.) Merr. with Anti-Inflammatory Activities on LPS-Induced RAW264.7 Cells” (Molecules, 2019).
In brackets after ≈: the same amount, converted by molar mass.

What was measured:
[1] = tested on: NO production by LPS stimulated in RAW264.7 cells; experiment: Inhibition of NO production in LPS-stimulated RAW264.7 macrophages (Griess reagent); assay type: cell-based, mouse; details: LPS-stimulated RAW264.7 cells; for IC50: Mus musculus, read-out: IC50 (inhibition of nitric oxide production)
Protocol: (§1) RAW264.7 the mouse macrophages cell line (Bioresource Collection and Research Center (BCRC) Number: 60001) was obtained from Food Industry Research and Development Institute (Hsinchu, Taiwan). All of the cell lines were cultured in DMEM containing 10% (v:v) fetal bovine serum (FBS), penicillin and streptomycin (100 U/mL), 4 mM L-glutamine (100 U/mL). The cells were cultured in a humidified incubator under 5% CO2 at 37 °C. The RAW264.7 cells (5 × 10^5 cells per mL) were seeded into plates for 24 h before treatment.
(§2) The in-vitro cell viability activity of MeOH extracts, partition fractions and pure compounds were determined by the MTT assay. RAW264.7 cells (5 × 10^4/well) were seeded in 96-well plates and incubated for 24 h. The cells were treated with MeOH extracts and contain partition fractions in various concentrations (0, 62.5, 125, 250, 500 and 1000 μg/mL), compounds and positive control (0, 6.25, 12.5, 25, 50 and 100 μg/mL) in the presence or absence of LPS (100 ng/mL) for 24 h. After 24 h, the medium was replaced with a medium containing 0.5 mg/mL MTT solution and incubated at 37 °C for 4 h. After the end of the MTT reaction, we used 0.04 N HCl /isopropanol solution to dissolve the formazan crystals. The absorbance was measured at 570 nm using a microplate reader (Molecular Devices, LLC.). The cell viability was calculated and compared with the control group.
The supernatant collected from cell culture and mixed with an equal volume of Griess reagent (1% sulphanilamide, 0.1% naphthylethylenediamine dihydrochloride and 5% phosphoric acid) and the absorbance value was measured at 540 nm using an ELISA plate reader.
The IC50 values for NO production were presented as mean values ± SD (standard deviations) of at least three independent experiments. The statistical significance of the differences was evaluated using Student’s t-test using IBM SPSS v.20.0 (SPSS Inc., Chicago, IL, USA). The percentage of NO production and cell viability were compared using variance analysis with GraphPad Prism 7.0 (GraphPad Software Inc., San Diego, CA, USA).

[2] = Cell viability assay (MTT) in RAW264.7 cells; assay type: cell-based; details: mouse, RAW264.7 macrophage cells, 6.25-100 μg/mL, LPS 100 ng/mL, mean ± SD of three independent experiments
Protocol: as §1, §2

[3] = pure compounds, 6.25-100 μg/mL, 24 h, mean ± SD of three independent experiments

| Molecule | IC50 [1, 3] | IC50 fold less than indomethacin (positive control) ([1]; NO inhibition) | CC50 at 24 h [2] | IC50 (inhibition of nitric oxide production) [1, 3] |
| --- | --- | --- | --- | --- |
| COC(=O)C1=CNC(=O)[C@@H]2[C@@H](C)[C@@H](O)C[C@H]12 [Compound 5, strychnovoline] | > 100 µg/mL |  | > 100 µg/mL |  |
| C/C=C1/C(=O)OCC[C@H]1CCO [Compound 8, floribundane B] | > 100 µg/mL |  | > 100 µg/mL |  |
| COc1cc([C@@H]2OC[C@@H]3[C@H]2CO[C@H]3c2cc(OC)c(O)c(OC)c2)ccc1O [Compound 12, (+)-medioresinol] | 76.2 ± 2.42 µg/mL (≈ 196 µM) |  | > 100 µg/mL |  |
| COc1ccc(O)c(O)c1 [Compound 13, 4-methoxycatechol] | > 100 µg/mL |  | > 100 µg/mL |  |
| O=C(O)c1ccc(O)c(O)c1 [Compound 14, protocatechuic acid] | 72.9 ± 4.97 µg/mL (≈ 473 µM) |  | > 100 µg/mL |  |
| O=C(O)/C=C/c1ccc(O)c(O)c1 [Compound 15, trans-caffeic acid] | 95.2 ± 1.2 µg/mL (≈ 528 µM) |  | > 100 µg/mL |  |
| COc1cc(C(=O)O)cc(OC)c1O [Compound 16, syringic acid] | > 100 µg/mL |  | > 100 µg/mL |  |
| COc1cc(C(=O)CCO)cc(OC)c1O [Compound 17, 3-hydroxy-1-(4-hydroxy 3,5-dimethoxyphenyl)-1-propanone] | > 100 µg/mL |  | > 100 µg/mL |  |
| COc1cc(/C=C/C(=O)O)ccc1O [Compound 18, ferulic acid] | > 100 µg/mL |  | > 100 µg/mL |  |
| COC(=O)c1ccc(O)c(O)c1 [Compound 19, protocatechuic acid methyl ester] | > 100 µg/mL |  | > 100 µg/mL |  |
| COc1cc(C(=O)C(O)CO)ccc1O (stereo not drawn) [Compound 20, C-veratroylglycol] | > 100 µg/mL |  | > 100 µg/mL |  |
| COc1ccc2c(c1)c(CC(=O)O)c(C)n2C(=O)c1ccc(Cl)cc1 [Indomethacin, indomethacin, reference compound] | 46.7 ± 3.14 µg/mL (≈ 131 µM) |  | > 100 µg/mL |  |
| (+)-pinoresinol [Compound 11] |  |  |  | >100 µg/mL |

The next lines start with results.

| IC50 [1, 3] | IC50 fold less than indomethacin (positive control) ([1]; NO inhibition) | Molecule | CC50 at 24 h [2] | IC50 (inhibition of nitric oxide production) [1, 3] |
| --- | --- | --- | --- | --- |
| > 100 µg/mL |  | COC(=O)C1C(O)OC(=O)C2C(C)C(O)CC12 (stereo not drawn) [Compound 1, neonanin C] | > 100 µg/mL |  |
| > 100 µg/mL |  | COC(=O)C(CO)C1CC(O)C(C)C1COC(=O)c1ccccc1 (stereo not drawn) [Compound 2, neonanin D] | > 100 µg/mL |  |
| > 100 µg/mL |  | COC(=O)C1=COC(O)C2C1CC(OC1OC(=O)C3C(C)C(O)CC3C1C(=O)OC)C2C (stereo not drawn) [Compound 3, reticunin A] | > 100 µg/mL |  |
| > 100 µg/mL |  | COC(=O)C1COC(=O)C2C(C)C(OC3OC(=O)C4C(C)C(O)CC4C3C(=O)OC)CC12 (stereo not drawn) [Compound 4, reticunin B] | > 100 µg/mL |  |
| > 100 µg/mL |  | COC(=O)C1=COC[C@@H]2[C@@H](C)[C@@H](O)C[C@H]12 [Compound 6, siphonostegiol] | > 100 µg/mL |  |
| 86.3 ± 3.45 µg/mL (≈ 507 µM) |  | C[C@@H]1[C@H]2COC(=O)C[C@H]2C[C@@H]1O [Compound 7, isoboonein] | > 100 µg/mL |  |
| > 100 µg/mL |  | C[C@@H]1[C@H]2COC(=O)[C@@H](CO)[C@H]2C[C@@H]1O [Compound 9, alyxialactone] | > 100 µg/mL |  |
| 9.18 ± 1.9 µg/mL (≈ 21.9 µM) | 5 fold | COc1cc([C@H]2OC[C@H]3[C@@H]2CO[C@@H]3c2cc(OC)c(O)c(OC)c2)cc(OC)c1O [Compound 10, syringaresinol] | > 100 µg/mL |  |
